Test results: US6878522B2, “Methods for the identification of compounds useful for the treatment of disease states mediated by prostaglandin D2” (priority 2000, dated 2005)
Entries after “also recorded” stand apart in the source; their conditions may differ.

Columns and labels:
DP receptor = biological target: T1, DP receptor (Homo sapiens, UniProt Q13258); assay: Competition with 3H-PGD2 binding at the DP receptor (Examples 6-9); conditions: control, cold PGD2, 7 trials
T1 sequence (Q13258 1-359): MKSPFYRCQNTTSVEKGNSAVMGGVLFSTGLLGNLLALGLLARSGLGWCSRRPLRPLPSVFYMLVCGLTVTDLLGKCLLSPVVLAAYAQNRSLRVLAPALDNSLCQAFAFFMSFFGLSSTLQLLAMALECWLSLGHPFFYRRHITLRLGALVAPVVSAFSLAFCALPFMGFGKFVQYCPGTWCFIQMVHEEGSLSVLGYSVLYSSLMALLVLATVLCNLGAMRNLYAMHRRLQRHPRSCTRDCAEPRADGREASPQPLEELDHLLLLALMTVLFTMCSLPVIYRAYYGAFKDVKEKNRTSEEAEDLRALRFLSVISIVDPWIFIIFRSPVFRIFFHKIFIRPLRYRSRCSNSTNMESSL
Method: To directly determine the binding affinity of CRTH2 for PGD2, the following binding assay was used. Transfected and parental 300-19 cells were washed twice at room temperature with assay buffer, and resuspended at a concentration of 2×10^7 cells/ml. Using a 96-well U-bottom polypropylene plate (Costar, Corning Inc., Acton, Mass.), the assay was set up as follows: 50 μl of vehicle (0.3% DMSO in assay buffer, total wells) or of […] cold PGD2 (NS wells); 50 μl cells (2×10^7 cells/ml for 10^6 cells per well); 50 μl 6 nM [3H]-PGD2. The plate was allowed to incubate for 20 min at RT before centrifugation (2800 rpm, Sorval RT6000, 5 min, 4° C.). The plate was harvested (Packard Unifilter plate GF/C, previously soaked in 3% PEI for at least 1 hr) with cold assay buffer using a Packard Filtermate Cell Harvester (6×150 μl buffer wash per well). The filterplate was dried overnight. After the addition of 50 μl scintillation fluid (Packard Microscint 0), the plate was counted in a Packard Topcount scintillation counter (1 min per well). […]
In the assay, the capacity of each D-ring compound to compete with binding of ^3H-PGD2 was measured at both the CRTH2 and DP receptors, and an IC50 value (in μM) was determined. […]

[1] = tested on: human activated T-lymphocytes; assay: Chemotaxis of human T lymphocytes (Boyden chamber); assay type: cell-based; conditions: anti-CD3 or anti-CD3 and anti-CD28 stimulated T cells
Method: (§1) The chemotactic response of human T lymphocytes to PGD2, murine MDC and murine mSDF was also assayed. Chemotaxis was determined using a 48-well Boyden chamber (Neuroprobe, Cabin John, Md.), and 3.0 μm polycarbonate filters. Cells were resuspended (3-3.5×10^6 cells/ml) in RPMI 1640 supplemented with 10 mM HEPES and 1 mg/ml bovine serum albumin (Sigma, St. Louis, Mo.), and placed into the upper wells of the chamber. The compound to be tested was placed in the lower wells. The chambers were incubated for 90-120 minutes at 37° C. in a humidified CO2 incubator. At the end of the incubation period, the number of migrating cells on the filter (expressed per high power field) were enumerated microscopically. […] In FIG. 4, the chemotactic response of human basophils to PGD2 and C5a is shown.

human basophils = assay: Chemotaxis of human basophils; assay type: cell-based
Method: as §1

CCCCC[C@H](O)/C=C/[C@H]1C(=O)C[C@H](O)[C@@H]1C/C=C\CCCC(=O)O [PGD2, prostaglandin D2]
IC50 (DP receptor): 23.4 nM | chemotactic response of human T lymphocytes [1]: respond specifically to PGD2; also recorded: responsive to PGD2 | chemotactic response of human basophils (human basophils): responsive to PGD2
